Measurements: patent US20240366649A1, “4-ETHYNYL-3-HYDROXY-TETRAHYDROFURANYL-ADENINE PHOSPHORAMIDATES AND RELATED COMPOUNDS AND THEIR USE IN TREATING MEDICAL CONDITIONS” (ROME THERAPEUTICS, INC., priority 2021, published 2024)

Legend:
Assay type in all cases: cell-based
[1] = tested on: IFN-β production in PBMCs; assay: Decitabine-stimulated human PBMC assay; conditions: anti-CD3/anti-CD28, 10 μM decitabine, 5 days
Description: EasySep buffer (32 mL, Stem Cell, cat. #20144) was used to dilute 8 mL of LRSC buffy coat (from fresh Leukopak) with gentle mixing. The diluted buffy coat (20 mL) was transferred into each of two SepMate 50 tubes, and the tubes were filled with 15 mL of Lyphoprep (Stem Cell, ct. #07851) density gradient. The SepMate tubes were then centrifuged at 1200G for 10 minutes at room temperature with the brake on. The top layer of supernatant was collected in SepMate tubes by quickly pouring it into a new 50 mL conical tube. The PBMCs were washed with EasySep buffer ×2 by centrifuging at 300G for 5 minutes. The cells were resuspended in 30 mL of EasySep and centrifuged at 100G for 5 minutes with the brake off, and the platelets were removed. The cells were then resuspended in 6 mL of 1×RBC lysis buffer (InvitroGen) and incubated at 37° C. for 5 minutes. Then, 25 mL of EasySep buffer was mixed into the tube and it was centrifuged at 300G for 5 minutes. The cells were resuspended in 10 mL of EasySep buffer and the cells were then counted with Cellometer (AO/PI). The PBMCs were resuspended in RPMI1640 (ThermoFisher)+10% FBS (HyClone)+p/s at 3×10^6/mL. The PBMCs (100 μL, 300 k PBMCs) were then seeded in a 96-well flat bottom microplate (Corning) that had been precoated with 100 μL of anti-CD3 antibody (10 μg/mL in PBS, Biolegend) or PBS at 4° C., one day before the assay was commenced. […]

[2] = tested on: Esophageal cancer KYSE-410 cells; assay: Cancer cell viability assay with 3D cell colonies (CellTiter-Glo), KYSE-410; conditions: Homo sapiens, 168 h; KYSE-410, 3D methylcellulose colonies, 7 days
Description: (§1) Cancer cell lines were cultured in the following media: • Ovarian cancer OVCAR-8 cells—RPMI media containing 10% FBS • Ovarian cancer SK-OV-3 cells—McCoy's 5a media containing 10% FBS • Ovarian cancer SW756 cells—L-15 (100% air)+10% FBS • Esophageal cancer TE-1 cells—RPMI-1640+10% FBS • Esophageal cancer KYSE-410 cells—RPMI-1640+5˜10% FBS • Esophageal cancer KYSE-70 cells—RPMI-1640+10% h.i.FBS. • Pharyngeal cancer FaDu cells—MEM+0.01 mM NEAA+10% FBS
(§2) Cell colony formation was tested using a 3D methylcellulose-based CellTiter-Glo (CTG) viability assay (Cat. No: G7573, Promega). Briefly, cells were inoculated into 96-well plates (at 1,500 cells per well) into a solution of 0.65% methylcellulose in growth media and incubated overnight at 37° C. in 5% CO2. The next day, serially diluted test compound (islatravir, 4′-ethynyl-2-fluoro-2′-deoxyadenosine) or positive control (cisplatin, Cat. No. 6J015A89, Qilu Pharma) were added at the indicated concentrations, and the cells were incubated for 7 days. On day seven, 100 μL of CTG reagent was added, and the plates were incubated at room temperature for 20 min. Luminescence was read on an Envision Multi Label Reader according to manufacturer's instructions. IC50 values were determined using the following calculation: […]

[3] = tested on: Pharyngeal cancer FaDu cells; assay: Cancer cell viability assay with 3D cell colonies (CellTiter-Glo), FaDu; conditions: Homo sapiens, 168 h, 3D methylcellulose colonies, 7 days
Description: as §1, §2

[4] = biological target: LINE1 reverse transcriptase (Homo sapiens, UniProt O00370); assay: Stable artificial-intron Cis LINE1 reporter assay; set-up: expressed in transfected cells; conditions: HeLa L1 artificial-intron reporter cells, doxycycline-induced, 72 h, Firefly luciferase activity
Excerpt: A stable HeLa Tet-On 3G (Takara, cat no 631183) cell line expressing a bi-directional inducible LINE1 construct was generated as described in Xie, Y. et al. “Cell division promotes efficient retrotransposition in a stable L1 reporter cell line,” Mobile DNA (2013) 4:10. Single cell clones were screened for high Luciferase expression and the highest expression Firefly expressing clone was chosen for compound testing.
Test compounds were serially diluted in DMSO and spotted in 96-well plates. Subsequently the HeLa L1 artificial-intron reporter cells were plated into the compound-containing wells (8,000 cells/well), and the cells were induced for reporter expression with doxycycline (Sigma cat no D9891) at a final concentration of 500 ng/mL. Luminescence was measured 72 h after plating using the Dual-Glo Luciferase Assay System (Promega cat no E2940) following the manufacturer's instructions. The Firefly Luciferase activity (normalized against its activity in a control well without test compound) was used to report LINE1 activity.

[5] = tested on: Ovarian cancer SW756 cells; assay: Cancer cell viability assay with 3D cell colonies (CellTiter-Glo), SW756; conditions: Homo sapiens, 168 h; SW756, 3D methylcellulose colonies, 7 days
Description: as §1, §2

Sequence of LINE1 reverse transcriptase (O00370 whole entry, looked up): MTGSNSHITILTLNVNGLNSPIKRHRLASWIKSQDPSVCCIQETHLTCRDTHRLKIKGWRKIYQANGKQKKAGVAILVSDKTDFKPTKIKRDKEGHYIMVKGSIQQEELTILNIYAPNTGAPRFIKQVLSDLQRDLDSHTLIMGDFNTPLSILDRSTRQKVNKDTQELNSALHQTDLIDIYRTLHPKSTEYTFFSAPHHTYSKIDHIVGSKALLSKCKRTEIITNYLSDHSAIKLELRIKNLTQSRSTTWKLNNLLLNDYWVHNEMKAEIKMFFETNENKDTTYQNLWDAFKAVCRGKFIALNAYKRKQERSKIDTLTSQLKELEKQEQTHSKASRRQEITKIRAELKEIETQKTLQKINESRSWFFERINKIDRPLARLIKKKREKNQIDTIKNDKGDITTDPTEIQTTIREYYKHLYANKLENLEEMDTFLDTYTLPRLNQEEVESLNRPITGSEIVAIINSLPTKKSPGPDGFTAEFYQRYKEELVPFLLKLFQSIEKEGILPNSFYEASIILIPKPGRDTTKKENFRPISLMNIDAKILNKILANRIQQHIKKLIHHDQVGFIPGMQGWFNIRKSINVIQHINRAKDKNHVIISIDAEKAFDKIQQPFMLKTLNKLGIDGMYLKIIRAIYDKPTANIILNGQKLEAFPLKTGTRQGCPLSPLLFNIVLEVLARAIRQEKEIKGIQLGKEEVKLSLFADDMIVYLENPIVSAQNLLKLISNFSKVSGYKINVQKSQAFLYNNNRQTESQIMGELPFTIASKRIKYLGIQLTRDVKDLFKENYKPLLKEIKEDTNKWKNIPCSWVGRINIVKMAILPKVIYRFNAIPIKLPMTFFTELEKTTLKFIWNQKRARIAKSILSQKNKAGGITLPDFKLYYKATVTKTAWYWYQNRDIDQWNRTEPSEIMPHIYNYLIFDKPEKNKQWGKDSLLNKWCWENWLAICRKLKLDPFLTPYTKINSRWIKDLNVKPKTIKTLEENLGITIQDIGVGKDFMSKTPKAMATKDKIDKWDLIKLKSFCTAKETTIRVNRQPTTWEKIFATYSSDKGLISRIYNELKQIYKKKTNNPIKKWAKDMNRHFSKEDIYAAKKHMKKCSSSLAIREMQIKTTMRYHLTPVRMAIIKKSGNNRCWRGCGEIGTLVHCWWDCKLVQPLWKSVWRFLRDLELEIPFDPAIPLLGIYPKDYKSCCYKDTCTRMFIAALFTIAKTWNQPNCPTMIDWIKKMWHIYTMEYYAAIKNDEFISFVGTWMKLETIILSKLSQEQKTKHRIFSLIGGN

IC50 [2]: > 30 µM
IC50 [3]: 10 to 30 µM
IC50 [4]: ≤ 50 nM
IC50 [5]: > 30 µM
SMILES: C#C[C@]1(CO)O[C@@H](n2cnc3c(N)nc(F)nc32)C[C@@H]1O [islatravir, 4′-ethynyl-2-fluoro-2′-deoxyadenosine]
production of IFN-β [1]: activated production of IFN-β
